Usually pIC50 stands for the negative decadic logarithm of the IC50, by convention in mol/L. A higher pIC50 goes with a small IC50.

pIC50: −log10 of the molar value.

In PMC11106072, “CDK9 inhibition as an effective therapy for small cell lung cancer” (Cell Death & Disease, 2024) one finds IC50 data, which are given here for 1 molecule.

For this assay, the target named is T1, CDK9 (Homo sapiens, UniProt P50750).
T1 construct: with CyclinT1
Briefly: IMAP fluorescence polarisation kinase assay with CDK9/CyclinT1 (TAMRA-Rbtide, […] ATP); radiometric selectivity panel of […] CDK/cyclin pairs. The class given is biochemical. A general note: Polarisation of emitted light reports the rotation of a fluorescent probe.

T1 sequence (P50750 whole entry): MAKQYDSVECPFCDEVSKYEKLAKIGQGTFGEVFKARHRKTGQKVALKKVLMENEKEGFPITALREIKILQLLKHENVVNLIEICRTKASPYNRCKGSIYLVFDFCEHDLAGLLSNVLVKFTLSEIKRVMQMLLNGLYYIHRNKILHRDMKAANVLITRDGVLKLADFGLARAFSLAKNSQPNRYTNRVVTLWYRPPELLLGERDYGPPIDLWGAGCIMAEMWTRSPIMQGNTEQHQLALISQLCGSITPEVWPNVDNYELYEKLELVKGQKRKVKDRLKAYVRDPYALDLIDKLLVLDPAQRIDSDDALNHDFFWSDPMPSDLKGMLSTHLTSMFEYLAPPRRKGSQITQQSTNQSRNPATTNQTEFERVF
T1 sequence (O60563 whole entry partner): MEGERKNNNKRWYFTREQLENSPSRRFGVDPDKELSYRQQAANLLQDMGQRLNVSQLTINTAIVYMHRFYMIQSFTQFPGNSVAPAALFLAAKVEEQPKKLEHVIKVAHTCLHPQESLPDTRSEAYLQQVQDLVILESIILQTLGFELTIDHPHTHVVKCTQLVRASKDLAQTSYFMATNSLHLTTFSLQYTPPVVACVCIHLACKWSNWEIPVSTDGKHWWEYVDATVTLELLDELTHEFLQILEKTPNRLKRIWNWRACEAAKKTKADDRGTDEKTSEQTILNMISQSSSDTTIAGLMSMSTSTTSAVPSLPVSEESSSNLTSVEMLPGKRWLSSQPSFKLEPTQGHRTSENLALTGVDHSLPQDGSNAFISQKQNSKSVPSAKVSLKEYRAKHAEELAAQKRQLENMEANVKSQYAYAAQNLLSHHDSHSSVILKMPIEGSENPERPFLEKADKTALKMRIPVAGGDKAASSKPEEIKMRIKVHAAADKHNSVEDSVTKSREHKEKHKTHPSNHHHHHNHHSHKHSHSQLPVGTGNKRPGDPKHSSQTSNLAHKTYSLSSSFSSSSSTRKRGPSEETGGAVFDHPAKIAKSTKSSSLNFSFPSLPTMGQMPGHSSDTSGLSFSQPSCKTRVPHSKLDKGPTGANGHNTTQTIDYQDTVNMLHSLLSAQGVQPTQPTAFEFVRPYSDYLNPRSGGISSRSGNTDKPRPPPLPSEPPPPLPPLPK

For `COc1ccccc1-c1ncnc(Nc2cccc(Cn3cnc4ccccc43)c2)n1` [VC-1, VCC972839:01], the pIC50 is 8.15.
